The nature of data set [1]: LX-2 cell survival, sulforhodamine B (SRB) assay. In kind it is cell-based. Particulars: human, LX-2 cells. As for the experimental part: LX-2 cell survival was measured by sulforhodamine B (SRB) assay. The cells were seeded in 96-well plates at the density of 2 × 10^4/well and cultured in DMEM/GlutaMAX I medium with 10% fetal bovine serum (FBS) with 5% CO2, 37 °C. The cells were treated by the aloperine derivates for 24 h, washed by PBS for three times. Then the cells were fixed with 10% (wt/vol) trichloroacetic acid for 1 h and stained with SRB for 0.5 h. Subsequently, the protein-bound dye was dissolved in 10 mM Tris base solution after removing excess SRB dye washing repeatedly with 1% (vol/vol) acetic acid, the optical density (OD) was determined at 510 nm with a microplate reader.
For orientation: In SRB staining, fixed cells bind dye roughly in proportion to their protein.

For data set [2], the system named is COL1A1 mRNA. The data set is described as follows: RT-PCR of COL1A1 mRNA in LX-2 cells. The settings on record: 24 h. In kind it is cell-based, human. Here is the method:
In the absence or presence of TGF-β1 (2 ng/mL) treatment, LX-2 cells were treated with key compounds 4n and 4p at concentrations of 6 μM and 12 μM, or 4i at a concentration of 12 μM, respectively.
LX-2 cells were laid on 6-well plate and cultured in DMEM supplemented with 10% fetal bovine serum (FBS) in a 5% CO2 atmosphere at 37 °C. And serum-free culture was required until the cells reached 90−95% confluence. […] Total RNA of the LX-2 cells was isolated using TRIzol reagent, purified using NucleoSpin RNA Clean-up. Reverse transcription was performed with Transcriptor first strand cDNA synthesis kit. Subsequently, the cDNA levels was determined by ABI 7500 Fast Real-Time PCR System using TaqMan probes of COL1A1, TGF-β1, α-SMA, and GAPDH (sequence not disclosed by ABI) and FastStart Universal Probe master mix (Roche, Indianapolis, IN, USA).

Data set [3] deals with TGF-β1 protein. Nature of the data set: Western blot of TGF-β1 protein in LX-2 cells. The settings on record: 24 h. The data set is classed as cell-based, human. Here is the method:
At the meantime, the addition of TGF-β1 also stimulated the expression of TGF-β1 on protein level, as shown in Figure 3A–C and Supplementary Table S2.
(§1) LX-2 cells were cultured as described above. Cells were washed with phosphate-buffered saline (PBS) and were resuspended by radioimmunoprecipitation assay (RIPA) lysis buffer for 30 min in 4 °C; the supernatant was collected after centrifugation at 12000 g for 15 min at 4 °C. Subsequently, equal amounts of protein were quantified with Bradford assay, separated using SDS-PAGE and transferred onto polyvinylidene difluoride membrane. The membranes were blocked with 5% milk in PBST for 1 h, and probed with specific primary antibodies overnight at room temperature. The membrane was washed three times by PBST, and probed with horseradish peroxidase-conjugated secondary antibodies and GAPDH. The proteins were visualized by chemiluminescence reagents. Antibodies used in western blot analysis were obtained from Abcam (Cambridge, UK): anti-collagen 1 (ab34710), anti-TGF beta 1 antibody (ab179695), anti-alpha smooth muscle actin (ab32575) and Cell Signaling Technology (Danvers, MA, USA): GAPDH (D16H11) Rabbit mAb (5174).
(A western blot detects proteins with antibodies after separation by electrophoresis.)

The subject of data set [4] is α-SMA protein. Nature of the data set: Western blot of α-SMA protein in LX-2 cells. The data set is classed as cell-based, human. The settings on record: with TGF-β1, 6 and 12 μM, 24 h. Here is the method: Stellate cell activation is a key process for liver fibrogenesis, and α-SMA expression, induced by a stimulation of TGF-β1 or other factors, is considered a reliable marker of hepatic stellate cell activation and a key biomarker for liver fibrosis. Therefore, the expression of α-SMA was also investigated. As presented in Figure 3A–C and Supplementary Table S2, in our experiments, the addition of TGF-β1 stimulated the expression of α-SMA on protein level as expected.
as §1, with “Antibodies used in western blot analysis were obtained from Abcam (Cambridge, UK): anti-collagen 1 (ab34710), anti-TGF beta 1 antibody (ab179695), anti-alpha smooth muscle actin (ab32575) and Cell Signaling Technology (Danvers, MA, USA): GAPDH (D16H11) Rabbit mAb (5174).” left out

Where [5] appears, read: TGF-β1 (2 ng/mL) stimulation, 6 μM.
The mark [6] stands for this setting: TGF-β1 (2 ng/mL) stimulation, 12 μM.

A word on the CC50: it is the concentration that lowers cell viability or growth by half. A low value points to greater toxicity to the cells.

`O=C(CN1CCCC2=C[C@H]3C[C@H](CN4CCCC[C@H]34)[C@@H]21)N(c1ccccc1)c1ccc2ccccc2c1` [4n, 12N-(N’-(Naphthalen-2-yl)-N’-phenyl)carbamoylmethyl aloperine] had a CC50 at 24 h in data set [1] of 17.1 ± 5.4 µM. Moreover, the “Inhibitory rate of COL1A1 transcription (mRNA)” value came out at 76.0% in data set [2] (setting [5]); 84.5% in data set [2] (setting [6]); 42% in data set [2] (absence of TGF-β1, 6 μM); 47% in data set [2] (absence of TGF-β1, 12 μM). The “Inhibition rate of TGF-β1 protein expression” value in data set [3] (with TGF-β1, 6 μM) was 14.6%; in data set [3] (with TGF-β1, 12 μM) it was 61.0%. In addition, the “Inhibition of α-SMA expression on protein level” value in data set [4] is given as “dose-dependent inhibition”.

For the compound `O=C(CN1CCCC2=C[C@H]3C[C@H](CN4CCCC[C@H]34)[C@@H]21)N1c2ccccc2Oc2ccccc21` [4p, 12N-N′-Phenoxazinylcarbamoylmethyl aloperine], in data set [1], half-maximal cytotoxicity (CC50 at 24 h) was put at 34.8 ± 2.9 µM. The “Inhibitory rate of COL1A1 transcription (mRNA)” value in data set [2] (setting [5]) was found to be 99.5%; in data set [2] (setting [6]), 102.9%; in data set [2] (absence of TGF-β1, 6 μM) it was 38%; in data set [2] (absence of TGF-β1, 12 μM), 42%. The “Inhibition rate of TGF-β1 protein expression” value in data set [3] (with TGF-β1, 6 μM) is 20.8%; in data set [3] (with TGF-β1, 12 μM) it was 135.4%. Further, the “Inhibition of α-SMA expression on protein level” value in data set [4] is “dose-dependent inhibition”.

The values above are taken from article PMC7663597, “Structure–Activity Relationship of Aloperine Derivatives as New Anti–Liver Fibrogenic Agents” (Molecules, 2020).
